# Measurements as given in article PMC9574050, “Design, synthesis, and insecticidal activity of a novel series of flupyrimin analogs bearing 1-aryl-1H-pyrazol-4-yl subunits” (Frontiers in Chemistry, 2022).
# Several values for one entry are separate records, joined by “and”; a condition that tells them apart may be missing. Equal entries are not always repeated. Where two headings read alike, the source gives them in different places.
# Key:
# Assay type in all cases: in vivo
# [1] = system: Aphis craccivora; test: Insecticidal activity against Aphis craccivora (Potter spray tower); settings: read-out: Mortality rate (%) A. craccivora
# Protocol: (§1) Preparation of test agent. Dissolve accurately weighed tested compound in DMF to prepare 1% mother liquor, and then dilute it with distilled water containing 0.1% Tween-80 to corresponding concentrations for later use.
# Insecticidal activity against Aphis craccivora ([Liu et al., 2022]). About 30 nymphs of alfalfa aphid were placed on a horsebean leaf dish, and then 2.5 ml of the tested agent was sprayed with Potter spray tower. After treatment, they were cultured in an observation room at 20–22°C. The result was counted 24 h later, and the no-response insect body when it was lightly touched with tweezers was regarded as dead. Each treatment was repeated three times, and DMF without the tested compound was used as a blank control.
# (§2) The insecticidal activities of the test compounds against the abovementioned five insects were calculated by the following formula: P1=(K/N)×100, (1) P2=(Pt−P0)/(1−P0)×100, (2) where P1 is the mortality rate; K is the dead insect number; N is the total number of experimental insects; P2 is the corrected mortality rate; Pt is the mortality rate of treatment; P0 is the mortality rate of CK. If the mortality rate of CK is less than 5%, without the required correction, and if the mortality rate of CK is between 5 and 20%, P2 should be calculated according to formula II.
# [2] = system: Nilaparvata lugens; test: Insecticidal activity against Nilaparvata lugens (Potter spray tower); settings: 24 h, read-out: Mortality rate (%) N. lugens
# Source text: as §1
# Insecticidal activity against Nilaparvata lugens ([Ghareeb et al., 2021]). The seedlings with two leaves and one heart were placed in a Petri dish with a bottom diameter of 3 cm and covered with white sand. After the 3rd instar nymphae of N. lugens were stunned by CO2, about 15 nymphae were received in each dish, and then 2.5 ml of the tested agent was sprayed with Potter spray tower. The mortality of N. lugens was investigated 1 day after the treatment. Each treatment was repeated three times, and DMF without the tested compound was used as a blank control.
# as §2
# [3] = system: honeybees (Apis mellifera); test: Bee contact toxicity; settings: for LD50 / Toxicity level / Mortality: Contact toxicity; for Mortality: 1 μL of 10 × 10^4 mg A.I./L per bee; for LD50 contact toxicity: adult bees, time not stated
# Protocol: (§3) The test bees were Italian bees (Apis mellifera), and the newly born adult worker bees (<24 h) were selected for drug drip treatment. Weigh 50 mg of test substance FLP and fully dissolve it in DMSO to obtain 10 × 10^4 mg A.I./L of stock liquid medicine; dissolve B4 fully in DMSO and fix the volume to a 1-ml volumetric flask to obtain 11.6 × 10^4 mg A.I./L stock solution.
# Contact toxicity. 10 × 10^4 mg A.I./L of mother liquor was used as the test liquid, and 1 μL of the solution containing the tested drug was dripped onto the back of the front chest of bees by a micro-dropper. Then, bees were put into a beekeeping box and cultured in dark conditions at a temperature of 30 ± 1°C and relative humidity of 50%, with a 50% sucrose solution as food for 48 h. Taking the solvent drip bees without the drug to be tested as the blank control, the treatment group and the control group were set up with three replicates, and 10 bees were used in each replicate.
# (§4) Statistical analysis. Using the statistical software SPSS16.0, the LD50 value and 95% confidence limit of the half lethal dose of the sample to bees were obtained by regression statistical analysis with the probit analysis method.
# [4] = system: Plutella xylostella; test: Insecticidal activity against Plutella xylostella (soaking method); settings: for mortality at 100 µg/mL / mortality at 400 µg/mL / mortality at 25 µg/mL: Plutella xylostella, 48 h, read-out: Mortality rate (%) P. xylostella
# Source text: as §1
# Insecticidal activity against Plutella xylostella ([Yang et al., 2021]). The soaking method was adopted. After soaking a proper amount of radish leaves for 10 s, it was placed in a plastic Petri dish with filter paper and dried naturally in the shade. Each dish was inoculated with 10 2nd instar P. xylostella larvae and placed in an observation room at 22°C with light (16/8 h). The result was counted 2 days later, and the no-response insect body when it was lightly touched with a brush was regarded as dead. Each treatment was repeated three times, and DMF without the tested compound was used as a blank control.
# as §2
# [5] = system: Chilo suppressalis; test: Insecticidal activity against Chilo suppressalis (soaking method); settings: 96 h, read-out: Mortality rate (%) C. suppressalis
# Source text: as §1
# Insecticidal activity against Chilo suppressalis ([Huang et al., 2022]). The soaking method was adopted. The Zizania latifolia slices were soaked in a tested solution for 10 s, then taken out, and placed in a plastic Petri dish with filter paper to naturally dry in the shade. […] The result was counted 4 days later, and the no-response insect body when it was lightly touched with a brush was regarded as dead. Each treatment was repeated three times, and DMF without the tested compound was used as a blank control.
# as §2
# [6] = system: Helicoverpa armigera; test: Insecticidal activity against Helicoverpa armigera (soaking method); settings: for mortality at 400 µg/mL: Helicoverpa armigera, 48 h, read-out: Mortality rate (%) H. armigera
# Source text: as §1
# Insecticidal activity against Helicoverpa armigera. The soaking method was adopted ([Yang et al., 2022]). After soaking a proper amount of corn leaves for 10 s, they were placed in a plastic Petri dish with filter paper and dried naturally in the shade. Ten larvae of the 2nd instar H. armigera were attached to each dish and placed in an observation room at 26°C with light (16/8 h). The result was counted 2 days later, and the no-response insect body when it was lightly touched with a brush was regarded as dead. Each treatment was repeated 3 times, and DMF without the tested compound was used as a blank control.
# as §2
# [7] = system: honeybees (Apis mellifera); test: Bee acute oral toxicity; settings: for LD50 / Mortality / Toxicity level: Oral toxicity; for LD50 oral toxicity: adult bees, time not stated
# Protocol: as §3
# Oral toxicity. Before the formal experiment, a pre-experiment was carried out. According to the formal experimental conditions, three to four dose groups were set at large intervals to observe the death of bees between 24 and 48 h and determine the linear range of the lethal effect of drugs on bees. According to the pre-test results, determine the concentration range of the formal test and set five to seven test dose groups. Starve bees for 2 h before being infected, and then eliminate bees that are dying or have abnormal behaviors; put 200 μL of test liquid medicine in the feeding tube, and after the liquid medicine is consumed (within 6 h), take out the feeder to measure the weight of the food that has not been consumed. Then, the bees were fed with sucrose solution without test samples. Cultivate in the dark. At the same time, feeding 50% sucrose solution as a blank control, the treatment group and the control group were set up with three replicates, and 20 bees were used in each replicate. According to the results of the pre-experiment, if the toxicity of the drug to bees is low, the upper limit dose of 100 μg a.i./bee is set for the limit test of bees, that is, when the tested substance reaches 100 μg a.i./bee, no bees die, so there is no need to continue the test. If the solubility of the test substance is less than 100 μg a. i./bee, the maximum solubility is adopted as the upper limit concentration. The test results were examined at 24 and 48 h, respectively, and the number of deaths and poisoning symptoms were recorded. The standard of death is touching the bee's body, and when it can't crawl, it is judged as death.
# as §4
# [8] = 400 μg/mL, 3rd instar nymphae, 1 day after treatment
# [9] = 100 μg/mL, 2nd instar larvae, counted 2 days later
# [10] = 400 μg/mL, 2nd instar larvae, counted 2 days later
# [11] = 400 μg/mL, 3rd instar larvae, counted 4 days later
# [12] = 100 μg/mL, 3rd instar nymphae, 1 day after treatment
# [13] = 25 μg/mL, 2nd instar larvae, counted 2 days later
Structure (SMILES),"mortality at 400 µg/mL ([1]; 400 μg/mL, counted 24 h later)","mortality at 400 µg/mL [2, 8]",LD50 ([3]; 24 h),Toxicity level ([3]; 24 h),Mortality ([3]; 24 h),Toxicity level ([3]; 48 h),Mortality ([3]; 48 h),LD50 contact toxicity [3],"mortality at 100 µg/mL [4, 9]","mortality at 400 µg/mL [4, 10]","mortality at 400 µg/mL [5, 11]","mortality at 400 µg/mL [6, 10]",LD50 oral toxicity [7],"mortality at 100 µg/mL [2, 12]",other results
"COCC(=O)/N=c1\ccccn1Cc1cnn(-c2ccc(Cl)cc2)c1C(F)(F)F [Compound B4, (E)-N-(1-((1-(4-chlorophenyl)-5-(trifluoromethyl)-1H-pyrazol-4-yl)methyl)pyridin-2(1H)-ylidene)-2-methoxyacetamide]",0%,0%,>11.0 μg a.i./bee,Low toxicity,3,Low toxicity,3,> 11.0 μg a.i./bee,96.7%,100%,0%,0%,> 11.0 μg a.i./bee,,LD50 ([3]; 48 h): >11.0 μg a.i./bee; LD50 ([7]; 24 h): >11.0 μg a.i./bee; Mortality ([7]; 24 h): 15; Toxicity level ([7]; 24 h): Low toxicity; LD50 ([7]; 48 h): >11.0 μg a.i./bee; Mortality ([7]; 48 h): 17; Toxicity level ([7]; 48 h): Low toxicity
"Cn1cc(C(=O)/N=c2\ccccn2Cc2cnn(-c3cccc(Cl)c3)c2C(F)F)c(C(F)F)n1 [Compound D6, (E)-N-(1-((1-(3-chlorophenyl)-5-(difluoromethyl)-1H-pyrazol-4-yl)methyl)pyridin-2(1H)-ylidene)-3-(difluoromethyl)-1-methyl-1H-pyrazole-4-carboxamide]",0%,100%,,,,,,,100%,100%,0%,0%,,0%,"mortality at 25 µg/mL [4, 13]: 56.7%"
"Cn1cc(C(=O)/N=c2\ccccn2Cc2cnn(-c3ccc(F)cc3)c2C(F)F)c(C(F)F)n1 [Compound D7, (E)-3-(difluoromethyl)-N-(1-((5-(difluoromethyl)-1-(4-fluorophenyl)-1H-pyrazol-4-yl)methyl)pyridin-2(1H)-ylidene)-1-methyl-1H-pyrazole-4-carboxamide]",0%,100%,,,,,,,,73.3%,0%,0%,,0%,
"O=C(N=c1ccccn1Cc1ccc(Cl)nc1)C(F)(F)F [FLP, flupyrimin]",,,>11.0 μg a.i./bee,Low toxicity,12 and 9,Low toxicity,13 and 20,> 11.0 μg a.i./bee,,,,,> 11.0 μg a.i./bee,,"mortality at 100 µg/mL ([1]; 24 h): 100%; mortality at 400 µg/mL ([1]; 24 h): 100%; mortality at 100 µg/mL [2]: 100%; mortality at 400 µg/mL [2]: 100%; Mortality rate (%) P. xylostella [4, 13]: no insecticidal activity; mortality at 25 µg/mL [4]: 0%; mortality at 100 µg/mL [4]: 0%; mortality at 400 µg/mL [4]: 100%; mortality at 400 µg/mL [5]: 100%; Mortality rate (%) H. armigera [6, 10]: inactive; mortality at 400 µg/mL [6]: 0%"
